Assay results: patent US20150105252A1, “SUBSTITUTED PYRAZOLES AS HERBICIDES” (E I DU PONT DE NEMOURS AND COMPANY, priority 2013, published 2015)

Experiments:
Test in all cases: Test E preemergence
Settings in all cases: 21 days, scale 0 to 100
morningglory = assay type: in vivo, Ipomoea lacunosa
Source text: (§1) Seeds of plant species selected from bermudagrass (Cynodon dactylon), Surinam grass (Brachiaria decumbens), crabgrass, large (large crabgrass, Digitaria sanguinalis), crabgrass, naked (naked crabgrass, Digitaria nuda), foxtail, green (green foxtail, Setaria viridis), johnsongrass (Sorghum halepense), kochia (Kochia scoparia), morningglory (pitted morningglory, Ipomoea lacunosa), nutsedge, purple (purple nutsedge, Cyperus rotundus), ragweed (common ragweed, Ambrosia elation), mustard, black (black mustard, Brassica nigra), guineagrass (Panicum maximum), dallisgrass (Paspalum dilatatum), barnyardgrass (Echinochloa crus-galli), sandbur (southern sandbur, Cenchrus echinatus), sowthistle (common sowthistle, Sonchus oleraceous), ryegrass, Italian (Italian ryegrass, Lolium multiflorum), signalgrass (broadleaf signalgrass, Brachiaria platyphylla), dayflower, VA (Virginia (VA) dayflower, Commelina virginica), bluegrass (annual bluegrass, Poa annua), quackgrass (Elytrigia repens), mallow (common mallow, Malva sylvestris), buckwheat, wild (wild buckwheat, Polygonum convolvulus), leafy spurge (Euphorbia esula), common chickweed (Stellaria media), wild poinsettia (Euphorbia heterophylla), pigweed, palmer (palmer pigweed, Amaranthus palmeri), and pigweed (redroot pigweed, Amaranthus retroflexus) were planted into a blend of loam soil and sand and treated preemergence with test chemicals formulated in a non-phytotoxic solvent mixture which included a surfactant.
(§2) Treated plants and controls were maintained in a greenhouse for 21 days, after which time all species were compared to controls and visually evaluated. Plant response ratings, summarized in Table E, are based on a scale of 0 to 100 where 0 is no effect and 100 is complete control. A dash (-) response means no test result.

crabgrass, large = assay type: in vivo, Digitaria sanguinalis
Source text: as §1, §2

common chickweed = assay type: in vivo, Stellaria media
Source text: as §1, §2

bermudagrass = assay type: in vivo, Cynodon dactylon
Source text: as §1, §2

Surinam grass = assay type: in vivo, Brachiaria decumbens
Source text: as §1, §2

Row | SMILES | Plant response rating, Morningglory (morningglory; 16 g ai/ha) | Plant response rating, Morningglory (morningglory; 31 g ai/ha) | Plant response rating, Morningglory (morningglory; 62 g ai/ha) | Plant response rating, Morningglory (morningglory; 125 g ai/ha) | Plant response rating, Morningglory (morningglory; 250 g ai/ha) | Plant response rating, Crabgrass, Large (crabgrass, large; 16 g ai/ha) | Plant response rating, Crabgrass, Large (crabgrass, large; 31 g ai/ha) | Plant response rating, Crabgrass, Large (crabgrass, large; 62 g ai/ha) | Plant response rating, Crabgrass, Large (crabgrass, large; 125 g ai/ha) | Plant response rating, Crabgrass, Large (crabgrass, large; 250 g ai/ha) | Plant response rating, Common Chickweed (common chickweed; 16 g ai/ha) | Plant response rating, Common Chickweed (common chickweed; 31 g ai/ha) | Plant response rating, Common Chickweed (common chickweed; 62 g ai/ha) | Plant response rating, Common Chickweed (common chickweed; 125 g ai/ha) | Plant response rating, Common Chickweed (common chickweed; 250 g ai/ha) | Plant response rating, Bermudagrass (bermudagrass; 16 g ai/ha) | Plant response rating, Bermudagrass (bermudagrass; 31 g ai/ha) | Plant response rating, Bermudagrass (bermudagrass; 62 g ai/ha) | Plant response rating, Bermudagrass (bermudagrass; 125 g ai/ha) | Plant response rating, Bermudagrass (bermudagrass; 250 g ai/ha) | further results
1 | CCc1cc(C(=O)NC(C)C)nn1Cc1ccnc(C(F)(F)F)c1 [Compound 103] | 95 | 100 | 100 | 100 | 100 | 100 | 100 | 100 | 100 | 100 | 98 | 100 | 100 | 100 | 100 | 80 | 98 | 100 | 98 | 100 | Plant response rating, Surinam Grass (Surinam grass; 16 g ai/ha): 95; Plant response rating, Surinam Grass (Surinam grass; 31 g ai/ha): 100; Plant response rating, Surinam Grass (Surinam grass; 62 g ai/ha): 100; Plant response rating, Surinam Grass (Surinam grass; 125 g ai/ha): 100; Plant response rating, Surinam Grass (Surinam grass; 250 g ai/ha): 100
2 | CCOc1cc(C(=O)NCC(F)(F)F)nn1Cc1ccnc(C(F)(F)F)c1 [Compound 104] | 98 | 98 | 100 | 100 | 100 | 100 | 100 | 100 | 100 | 100 | 100 | 100 | 100 | 100 | 100 | 90 | 95 | 98 | 100 | 100 | Plant response rating, Surinam Grass (Surinam grass; 16 g ai/ha): 50; Plant response rating, Surinam Grass (Surinam grass; 31 g ai/ha): 75; Plant response rating, Surinam Grass (Surinam grass; 62 g ai/ha): 95; Plant response rating, Surinam Grass (Surinam grass; 125 g ai/ha): 100; Plant response rating, Surinam Grass (Surinam grass; 250 g ai/ha): 100
